Laboratory results: ChEMBL document CHEMBL4004791, “Ceylonins A-F, Spongian Diterpene Derivatives That Inhibit RANKL-Induced Formation of Multinuclear Osteoclasts, from the Marine Sponge Spongia ceylonensis” (J Nat Prod, 2017)
Calls of active or inactive are those of the source. No cut-off for these calls is given here.

Experiments:
[1] = (§1) Inhibition of RANKL-induced osteoclastogenesis in mouse RAW264 cells at 50 uM after 4 days by TRAP staining based assay relative to control; type: functional; details: RAW264.7, 96 h
RAW264 [2] = assay: Inhibition of RANKL-induced osteoclastogenesis in mouse RAW264 cells after 4 days by TRAP staining based assay; type: functional, cell-based
[3] = Cytotoxicity against mouse RAW264 cells at 50 uM; type: cell-based; details: raw264, 50 µM
RAW264 [4] = assay: as §1; type: functional

Row | SMILES | inhibition at 50 µM [1] [%] | inhibition (RAW264 [2]) | Activity [3] | inhibition (RAW264 [4])
1 | C[C@]12CCC[C@](C)(C(=O)O)[C@@H]1CC[C@@]1(C)C3=C(CC[C@H]21)[C@H]1O[C@@H]3C[C@@H]1C(=O)O | 28 |  |  | 
2 | C[C@]12CCC[C@](C)(C(=O)O)[C@@H]1CC[C@@]1(C)C3=C(CC[C@H]21)[C@@H]1O[C@H]3C[C@@H]1C(=O)O | 70 | Dose-dependent effect | Non-Toxic | 
3 | C[C@]12CCC[C@](C)(C(=O)O)[C@@H]1CC[C@@]1(C)C3=C(CC[C@H]21)[C@@H]1C[C@@H](C(=O)O)[C@H]3O1 | 31 |  |  | 
4 | C[C@]12CCC[C@](C)(C(=O)O)[C@@H]1CC[C@@]1(C)C3=C(CC[C@H]21)[C@H]1C[C@H](C(=O)O)[C@@H]3O1 | 47 |  |  | 
5 | C[C@]12CCC[C@](C)(C(=O)O)[C@@H]1CC[C@@]1(C)c3cocc3CC[C@H]21 |  |  |  | inactive
